Results as given in US20100099118A1, “METHODS OF DETERMINING TOTAL PON1 LEVEL” (priority 2007, published 2010).
Several values for one entry are separate records, joined by “and”; a condition that tells them apart may be missing. Identical values can stand only once.

What was measured:
serum PON1 [1] = experiment: Paraoxonase activity in sera; format: biochemical; settings: 54 human sera
Protocol: (§1) Phenyl acetate and paraoxonase activities were measured in 50 mM Tris pH 8.0 with 1 mM CaCl2. All activities were measured with 1 mM substrate, and expressed in Units/ml for phenyl acetate (1 μmol of phenyl acetate hydrolyzed per min per 1 ml undiluted serum) or mUnits/ml for other activities (1 nmol of substrate hydrolyzed per min per 1 ml undiluted serum). Horizontal bars represent the mean value for each group.
(§2) Paraoxonase and aryl esterase activity in sera: Paraoxonase activity in sera samples was measured in activity buffer with 1 mM paraoxon by monitoring the absorbance at 405 nm in a final volume of 200 μl (ε=10,515 OD/M). Arylesterase activity was measured in activity buffer with 1 mM phenyl acetate by monitoring the absorbance at 270 nm in a final volume of 200 μL (ε=7000D/M).

serum PON1 [2] = experiment: Arylesterase activity in sera (phenyl acetate); format: biochemical; settings: 54 human sera
Protocol: as §1, §2

PON1 = settings: from Gaidukov et al. 2006; cited from earlier work
serum PON1 [3] = target: T1, serum PON1 (Homo sapiens, UniProt P27169); experiment: Lactonase activity in sera measured with TBBL; format: biochemical; settings: QQ sera (n = 34); 0.25 mM TBBL; mean and S.D.
T1 construct: The samples were collected from 54 healthy individuals at Rambam Medical Center; from tissue; host or cells: human serum from 54 healthy individuals
T1 sequence (P27169 2-355): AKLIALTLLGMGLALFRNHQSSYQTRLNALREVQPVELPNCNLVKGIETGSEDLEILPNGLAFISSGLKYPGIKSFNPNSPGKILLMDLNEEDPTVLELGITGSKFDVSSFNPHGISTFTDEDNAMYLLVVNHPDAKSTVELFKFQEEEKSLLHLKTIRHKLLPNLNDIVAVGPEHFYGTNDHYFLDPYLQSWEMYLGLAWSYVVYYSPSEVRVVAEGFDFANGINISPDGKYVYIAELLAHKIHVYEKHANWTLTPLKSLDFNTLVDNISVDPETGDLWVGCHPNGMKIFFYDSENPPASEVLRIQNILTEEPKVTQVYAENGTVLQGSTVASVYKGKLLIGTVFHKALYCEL
Protocol: (§3) Lactonase Activity in Sera: Human sera were kindly provided by Michael Aviram. The samples were collected from 54 healthy individuals at Rambam Medical Center (Haifa, Israel) with the approval of the institute's Helsinki committee. Phenotyping sera for the PON1-192R/Q polymorphism was performed by a two-substrate method [Eckerson, H. W., et al., Am J Hum Genet. 35: 1126-1138] as previously described [Gaidukov, L., M. Rosenblat, M. Aviram, and D. S. Tawfik. 2006. J Lipid Res 47: 2492-2502]. Sera were divided into aliquots, supplemented with β-mercaptoethanol (5 mM) to prevent oxidation, and stored frozen at −20° C. All assays were performed in 96-well plates (Nunc), using an automated microplate reader (Bio-Tek; optical length ˜0.5 cm). Lactonase activity was measured in activity buffer (50 mM Tris pH 8.0, 1 mM CaCl2) containing 0.25 mM of 5-thiobutyl butyrolactone (TBBL) [Gaidukov, L., et al., 2006 J Lipid Res 47: 2492-2502] and 0.5 mM 5,5′-dithio-bis-2-nitrobenzoic acid (DTNB) by monitoring the absorbance at 412 nm in a final volume of 200 μl (ε=7,000 OD/M). The serum was diluted 400-fold in 100 μl of activity buffer complemented with 1 mM DTNB. DTNB was used from 100 mM stock in DMSO. TBBL was used from 250 mM stock in acetonitrile. TBBL was diluted 500-fold in activity buffer containing 2% acetonitrile. The reaction was initiated by adding 100 μl of TBBL (0.5 mM) to 100 μl of sera dilution. The final sera dilution was 800-fold. All the reaction mixtures contained a final 1% acetonitrile. Rates of spontaneous hydrolysis of TBBL in buffer were subtracted from all the measurements. Activities were expressed as U/ml (1 unit=1 μmol of TBBL hydrolyzed per minute per 1 ml of undiluted serum).

serum PON1 [4] = target: T2, serum PON1 (Homo sapiens, UniProt P27169, Q192R); experiment: Lactonase activity in sera measured with TBBL; format: biochemical; settings: RR sera (n = 6); 0.25 mM TBBL; mean and S.D.
T2 construct: The samples were collected from 54 healthy individuals at Rambam Medical Center; from tissue; host or cells: human serum from 54 healthy individuals
T2 sequence (P27169 2-355 Q192R): as the sequence (P27169 2-355) above, with Q191R counted along it
Protocol: as §3

serum PON1 [5] = experiment: Lactonase activity in sera measured with TBBL; format: biochemical, human; settings: for TBBL lactonase activity: 0.25 mM TBBL, mean and S.D.
Protocol: as §3

[6] = target: purified human PON1 polymorphs (Homo sapiens, UniProt P27169); experiment: Specific activity of purified human PON1 polymorphs for TBBL in absence of HDL; format: biochemical; settings: 0.25 mM TBBL, same for both polymorphs
Sequence of purified human PON1 polymorphs (P27169 2-355): as the sequence (P27169 2-355) above

[7] = 50 mM Tris pH 8.0, 1 mM substrate

SMILES: CCOP(=O)(OCC)Oc1ccc([N+](=O)[O-])cc1 [Paraoxon]
- Mean ± S.D. of activity (serum PON1 [1]; [7]): 49.5 ± 36.6 Units activity
- Range of activity (serum PON1 [1]; [7]): 7.7-173.5 Units activity
- Variation of activity between sera (fold, in brackets under range) (serum PON1 [1]): (23) fold

SMILES: CC(=O)Oc1ccccc1 [Phenyl acetate]
- Mean ± S.D. of activity (serum PON1 [2]; [7]): 48.2 ± 20.9 Units activity
- Range of activity (serum PON1 [2]; [7]): 15.6-100.6 Units activity
- Variation of activity between sera (fold, in brackets under range) (serum PON1 [2]): (6) fold
- Stimulation upon HDL binding (PON1): ca. 2 fold

SMILES: CCCCSC1CCC(=O)O1 (centres unmarked) [TBBL, 5-thiobutyl butyrolactone]
- TBBL lactonase activity (serum PON1 [3]): 3.5 Units/ml and 3.5 ± 1.6 Units/ml
- TBBL lactonase activity (serum PON1 [4]): 5.4 Units/ml and 5.4 ± 2.7 Units/ml
- Variation of TBBLase activity between sera (serum PON1 [5]; 54 human sera): 7 fold
- TBBL lactonase activity (serum PON1 [5]; All sera (n = 54), μmol hydrolyzed per min per 1 ml undiluted serum): 3.8 ± 1.9 Units/ml
- TBBL lactonase activity (serum PON1 [5]; RQ sera (n = 14)): 4.1 ± 2.1 Units/ml
- Mean lactonase activity in RR sera relative to QQ sera (serum PON1 [5]; RR vs QQ sera): 1.5 fold
- Specific activity for TBBL [6]: 1.0±0.1 μmol/min/mg of protein
